# Measurements: patent US6177475A, “Methods of using integrin modulators for treatment of inflammation” (priority 1997, dated 2001)
# How the values were obtained:
# [1] = test system: neutrophils (β2 integrins); assay: N-formyl-L-methionyl-L-leucyl-L-phenylalanine-stimulated neutrophil aggregation; type: cell-based
# Experimental: Neutrophil aggregation was assayed as described above for the platelet system, with some modifications. Freshly isolated neutrophils were finally suspended in a buffer (120 mM NaCl, 4 mM KCl, 10 mM dextrose, 2 mM CaCl2·2H2 O, 2 mM MgCl2·6H2 O, and 20 mM Tris; pH 7.4) to the final density of 10^7 cells per ml. Aliquots of neutrophil suspension (0.25 ml in siliconized glass cuvettes; 10^7 cells per ml) were stirred in the cell of the aggregometer with 5 micrograms per ml cytochalasin B (1000 rpm, 37° C.) for 1 min. […] Maximum LT (100%) was calibrated with the same buffer.
# (§1) The requirement of integrins for the formation of cell-to-cell contacts in each of these systems has long been established. It is known that in platelets the relevant integrin is GP IIb/IIIa (β3). Neutrophil aggregation is underlain by interactions of β2 integrins (e.g., LFA-1 and/or Mac-1) with their surface counterstructures, while cohesion of T-cells is supported by both β2 integrins and fibronectin-binding β1 integrins (e.g., VLA-4 and VLA-5).
# H9 cells = assay: Disruption of cell clusters formed by H9 cells in culture; type: cell-based; settings: Homo sapiens, 16 to 24 h
# Experimental: T-lymphocytic H9 and Jurkat cells were maintained as suspension cultures in RPMI-1640 medium supplemented with 10% (v/v) heat-inactivated fetal calf serum, 50 micrograms/ml gentamycin and 2 mM L-glutamine. To assess the effects of Ajoene on adhesive interactions of the cells, H9 cells or Jurkat cells were seeded in 96-well flat-bottomed plates (3×10^5cells per well) and cultured in the presence of log 10 dilutions of Ajoene (experiment) or its vehicle (control) for 16 to 24 h.
# as §1
# [2] = test system: HIV-1LBi (HIV-infected MOLT-4 cells, syncytiotrophoblasts); assay: Lymphocyte-mediated HIV infection of syncytiotrophoblasts; type: cell-based; settings: 200 micromoles per liter, 24 hours, virtually all colonies
# Excerpt: Human fetal placental epithelial cells, known as syncytiotrophoblasts, were organized in a monolayer and exposed to HIV-infected lymphocytic cells and, as a negative control, to uninfected cells of the same type. This experimental system, closely simulating the actual conditions under which syncytiotrophoblasts would be exposed to HIV-infected cells in vivo, was used to assess integrin-modulating effects of Ajoene.
# (§2) In order to assess the ability of Ajoene to inhibit lymphocyte-mediated HIV infection of syncytiotrophoblasts, HIV-1LBi -infected MOLT-4 cells were added to adherent cultures of uninfected syncytiotrophoblasts in the presence and absence of Ajoene. Various additional control conditions were also established. First, some wells received filtered (0.45 micrometer) supernatant of cell-free HIV from infected cell cultures. Yet other negative controls included syncytiotrophoblasts cultured alone and syncytiotrophoblasts cultured with uninfected MOLT-4 cells. After 24 hours, the cocultures were washed to removed unbound lymphocytes, fixed, permeabilized, stained for viral core antigens (p24 and p55), and viewed under a fluorescence microscope.
# cell-free HIV = assay: Cell-free HIV infection of syncytiotrophoblasts; type: cell-based, HIV-1; settings: 200 micromoles per liter and lower concentrations tested
# Experimental: as §2
# [3] = test system: human sperm / zona-free hamster oocytes; assay: Hamster oocyte penetration assay with capacitated human sperm; type: cell-based; settings: 200 micromoles per l; 30 min pretreatment of sperm and oocytes
# Experimental: The activity of Ajoene in the hamster oocyte penetration assay was tested. This assay is routinely used to test the ability of capacitated human sperm to penetrate oocytes.
# To obtain oocytes, mature hamsters (on day 1 of the estrous cycle) were injected intraperitoneally with 40 International Units (IU) pregnant mare serum gonadotropin (PMSG), followed by 40 IU human chorionic gonadotropin (HCG) 55 hours late. After 16 hours, the animals were sacrificed by intracardiac injection of 0.1 ml T61 (euthanizing agent), the oviducts were removed, and the cumulus mass was collected. Cumulus cells were removed by hyaluronidase treatment, and the freed oocytes were transferred into a watchglass containing 3 ml Biggers-Whitter-Whittingham (BWW) medium supplemented with human serum albumin (HSA) (BWW/HSA; pH 7.5). […]
# Human sperm was from a donor with known fertility (No. 113). […] A small portion of the original sample was analyzed (computer-assisted sperm analysis) using the Cell-Soft package. […] The swim-up was collected (about 0.5 ml), the cells were counted (Makler chamber), and their motility determined (%). […] Thereafter, motility and cell density were determined once again, and the sample was divided into three equal portions, each to be subjected to appropriate treatment. […]
# melanoma B16 cells = assay: Experimental metastasis, lung colonization by melanoma B16 cells; type: in vivo, C57BL/6 mice; settings: B16 cells pretreated 30 min; 200 micromoles per liter; 3 weeks
# Experimental: A suspension of 10^5 melanoma B16 cells was pretreated for 30 min with Ajoene, and the suspension (including Ajoene) was injected intravenously into male C57BL/6 mice. The mice were sacrificed 3 weeks post-injection, and their lungs subjected to microscopic examination.
# GP IIb/IIIa = settings: cited from earlier work
compound,measurement,setting,value
"C=CCSSC=CC[S+]([O-])CC=C (stereo not drawn) [Ajoene, 4,5,9-trithiadodeca-1,6,11-triene-9-oxide]",IC100,"[1]; Neutrophil, stimulus N-formyl-L-methionyl-L-leucyl-L-phenylalanine 10^-7 M",~10 µM
same,deaggregation of aggregated neutrophils,[1]; added to aggregated neutrophils,caused rapid deaggregation
same,IC50,H9 cells,~50 nM
same,prevention of lymphocyte-mediated HIV infection of syncytiotrophoblasts,[2],totally prevented
same,inhibition of cell-free HIV infection of syncytiotrophoblasts,cell-free HIV,totally inhibited
same,Penetration (penetrated oocytes / total oocytes),[3],0%
same,prevention of lung colonization,melanoma B16 cells,prevented lung colonization
same,inhibition of platelet aggregation by inactivation of GP IIb/IIIa,"GP IIb/IIIa; Apitz-Castro et al., 1986","inhibit platelet aggregation by inactivating allosterically the platelet integrin, GP IIb/IIIa"
same,reversibility of integrin inhibition,GP IIb/IIIa,reversible
